What was measured:
human GLP-1 receptor = target: T1, human GLP-1 receptor (Homo sapiens, UniProt P43220); test: Receptor binding assay: [125I]GLP-1 (aa 7-36) equilibrium radioligand binding; details: membranes from HEK-293 or CHO cells expressing the human GLP-1 receptor; room temp 120 min
T1 construct: expressed in transfected cells; host or cells: HEK-293 or CHO cells (membranes)
Experimental: Reactions were carried out in 96-well plates. Compound was diluted in 20% DMSO/water. The final assay concentration ranging from 0.1 nM to 100 uM in 2% final DMSO concentration was used. […] Plates were washed 5 times with cold 25 mM Tris-HCL, pH 7.5 containing 0.05% bovine serum albumin (BSA). Following filtration, 50 uL of Microscint PS (Packard part no. 6013631) was added, plates were sealed with TopSeal-A adhesive seals (Packard part no. 6005185). ^125I isotope bound to the Unifilter-96 GF/C plates was counted using a TopCount instrument (Packard).
Percent inhibition of [^125I] […] The IC50 values were calculated by fitting the data using parameters for a sigmoidal dose response, variable slope nonlinear regression (GraphPAD Prizm, San Diego, Calif.) according to the equation: Y=Bottom+(Top-Bottom)/(1+10^((Log EC50−X)*HillSlope)) wherein, X is the logarithm of concentration and Y is the response, and Y starts at Bottom and goes to Top with a sigmoid shape. This is identical to the four parameter logistic equation.

[1] = target: T2, cloned human GLP-1 receptor (Homo sapiens, UniProt P43220); test: Functional cell-based assay: cAMP functional assay; details: for Emax: 0.5 h, percentage relative to maximal GLP-1-induced cAMP accumulation, na = not active in the assay, read-out: % activation
T2 construct: expressed in transfected cells; host or cells: CHO or HEK-293 cells
T2 sequence (P43220 24-463): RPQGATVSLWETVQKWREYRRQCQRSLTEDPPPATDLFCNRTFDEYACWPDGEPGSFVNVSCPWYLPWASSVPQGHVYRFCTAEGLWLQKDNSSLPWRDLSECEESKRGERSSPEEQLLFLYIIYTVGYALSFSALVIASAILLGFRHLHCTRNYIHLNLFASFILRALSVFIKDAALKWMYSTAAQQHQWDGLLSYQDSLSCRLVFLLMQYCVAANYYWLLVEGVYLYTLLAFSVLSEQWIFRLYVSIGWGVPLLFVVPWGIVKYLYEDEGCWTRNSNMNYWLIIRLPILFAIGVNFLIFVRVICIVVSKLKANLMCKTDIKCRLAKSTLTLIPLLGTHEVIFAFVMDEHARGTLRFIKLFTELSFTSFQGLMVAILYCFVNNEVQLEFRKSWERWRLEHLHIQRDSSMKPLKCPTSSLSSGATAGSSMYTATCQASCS
Method in brief: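 Monolayer cells incubated 30 min at 37 °C with compounds (0.0001–100 μM) in IMDM containing 100 μM RO 20-1724 PDE inhibitor, 0.1% BSA and 2% DMSO. cAMP measured by HTRF.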

T1 sequence (P43220 24-463): as above

With `CC[C@H](c1ccccc1)N1Cc2cc3c(cc2C[C@H]1C(=O)N[C@@H](Cc1ccc(-c2ccc(C#N)cc2)cc1)C(=O)O)N(C)C(=O)[C@@H](c1ccc(OCc2ccc(Cl)c(Cl)c2)cc1)O3` [Example 89] the “% binding vs [125I]GLP-1” value (human GLP-1 receptor) was 44%.
`N#Cc1ccc(-c2ccc(C[C@H](NC(=O)[C@@H]3Cc4cc5c(cc4CN3C(=O)c3ccccc3)OC(c3ccc(OCc4ccc(Cl)c(Cl)c4)cc3)C(=O)N5)C(=O)O)cc2)cc1` (stereo partly drawn) [Example 15, (S)-2-({(S)-6-Benzoyl-3-[4-(3,4-dichloro-benzyloxy)-phenyl]-2-oxo-2,3,5,6,7,8-hexahydro-1H-4-oxa-1,6-diaza-anthracene-7-carbonyl}-amino)-3-(4′-cyano-biphenyl-4-yl)-propionic acid] was tested, and the “% binding vs [125I]GLP-1” value (human GLP-1 receptor) was 68%, the EC50 [1] was 145 nM and the Emax [1] was 99.6%.
In the case of `CC[C@@H](c1ccccc1)N1Cc2cc3c(cc2C[C@H]1C(=O)N[C@@H](Cc1ccc(-c2ccc(F)cc2)cc1)C(=O)O)N(C)C(=O)[C@H](c1ccc(OCc2ccc(Cl)c(Cl)c2)cc1)O3` [Example 95, (S)-2-{[(3S,7S)-3-[4-(3,4-Dichloro-benzyloxy)-phenyl]-1-methyl-2-oxo-6-((S)-1-phenyl-propyl)-2,3,5,6,7,8-hexahydro-1H-4-oxa-1,6-diaza-anthracene-7-carbonyl]-amino}-3-(4′-fluoro-biphenyl-4-yl)-propionic acid], the “% binding vs [125I]GLP-1” value (human GLP-1 receptor) is reported as 65%, the EC50 [1] is reported as 364 nM and the Emax [1] is reported as 49%.
For `CC[C@H](c1ccccc1)N1Cc2cc3c(cc2C[C@H]1C(=O)N[C@@H](Cc1ccc(-c2ccc(C#N)cc2)cc1)C(=O)O)N(C)C(=O)[C@H](c1ccc(OCc2ccc(Cl)c(Cl)c2)cc1)O3` [Example 88, (S)-3-(4′-Cyano-biphenyl-4-yl)-2-{[(3S,7S)-3-[4-(3,4-dichloro-benzyloxy)-phenyl]-1-methyl-2-oxo-6-((R)-1-phenyl-propyl)-2,3,5,6,7,8-hexahydro-1H-4-oxa-1,6-diaza-anthracene-7-carbonyl]-amino}-propionic acid], the “% binding vs [125I]GLP-1” value (human GLP-1 receptor) was 60%.
In the case of `N#Cc1ccc(-c2ccc(C[C@H](NC(=O)[C@@H]3Cc4cc5c(cc4CN3Cc3ccccn3)OC(c3ccc(OCc4ccc(Cl)c(Cl)c4)cc3)C(=O)N5)C(=O)O)cc2)cc1` (stereo partly drawn) [Example 39, (S)-3-(4′-Cyano-biphenyl-4-yl)-2-({(S)-3-[4-(3,4-dichloro-benzyloxy)-phenyl]-2-oxo-6-pyridin-2-ylmethyl-2,3,5,6,7,8-hexahydro-1H-4-oxa-1,6-diaza-anthracene-7-carbonyl}-amino)-propionic acid], the “% binding vs [125I]GLP-1” value (human GLP-1 receptor) is reported as 60%, the EC50 [1] is reported as 130 nM and the Emax [1] is reported as 56%.
Work on `N#Cc1ccc(-c2ccc(C[C@H](NC(=O)[C@@H]3Cc4cc5c(cc4CN3S(=O)(=O)c3ccccc3[N+](=O)[O-])OC(c3ccc(OCc4ccc(Cl)c(Cl)c4)cc3)C(=O)N5)C(=O)O)cc2)cc1` (stereo partly drawn) [Example 51, (S)-3-(4′-Cyano-biphenyl-4-yl)-2-{[(S)-3-[4-(3,4-dichloro-benzyloxy)-phenyl]-6-(2-nitro-benzenesulfonyl)-2-oxo-2,3,5,6,7,8-hexahydro-1H-4-oxa-1,6-diaza-anthracene-7-carbonyl]-amino}-propionic acid] yielded an EC50 [1] of 820 nM and an Emax [1] of 30%.
`Cc1ccccc1CN1Cc2cc3c(cc2C[C@H]1C(=O)N[C@@H](Cc1ccc(-c2ccc(C#N)cc2)cc1)C(=O)O)NC(=O)C(c1ccc(OCc2ccc(Cl)c(Cl)c2)cc1)O3` (stereo partly drawn) [Example 38, (S)-3-(4′-Cyano-biphenyl-4-yl)-2-{[(S)-3-[4-(3,4-dichloro-benzyloxy)-phenyl]-6-(2-methyl-benzyl)-2-oxo-2,3,5,6,7,8-hexahydro-1H-4-oxa-1,6-diaza-anthracene-7-carbonyl]-amino}-propionic acid] showed an EC50 [1] of 710 nM and an Emax [1] of 32%.
Work on `N#Cc1ccc(-c2ccc(C[C@H](NC(=O)[C@@H]3Cc4cc5c(cc4CN3C(=O)c3cccc(C(F)(F)F)c3)OC(c3ccc(OCc4ccc(Cl)c(Cl)c4)cc3)C(=O)N5)C(=O)O)cc2)cc1` (stereo partly drawn) [Example 24, (S)-3-(4′-Cyano-biphenyl-4-yl)-2-{[(S)-3-[4-(3,4-dichloro-benzyloxy)-phenyl]-2-oxo-6-(3-trifluoromethyl-benzoyl)-2,3,5,6,7,8-hexahydro-1H-4-oxa-1,6-diaza-anthracene-7-carbonyl]-amino}-propionic acid] yielded an EC50 [1] of 1600 nM and an Emax [1] of 53%.
With `CC[C@@H](c1ccccc1)N1Cc2cc3c(cc2C[C@H]1C(=O)N[C@@H](Cc1ccc(-c2ccc(C#N)cc2)cc1)C(=O)O)N(C)C(=O)[C@H](c1ccc(OCc2ccc(Cl)c(Cl)c2)cc1)O3` [Example 87, (S)-3-(4′-Cyano-biphenyl-4-yl)-2-{[(3S,7S)-3-[4-(3,4-dichloro-benzyloxy)-phenyl]-1-methyl-2-oxo-6-((S)-1-phenyl-propyl)-2,3,5,6,7,8-hexahydro-1H-4-oxa-1,6-diaza-anthracene-7-carbonyl]-amino}-propionic acid] the EC50 [1] was 64.5 nM and the Emax [1] was 82%.
`N#Cc1ccc(-c2ccc(C[C@H](NC(=O)[C@@H]3Cc4cc5c(cc4CN3Cc3ccccc3Cl)OC(c3ccc(OCc4ccc(Cl)c(Cl)c4)cc3)C(=O)N5)C(=O)O)cc2)cc1` (stereo partly drawn) [Example 42, (S)-2-({(S)-6-(2-Chloro-benzyl)-3-[4-(3,4-dichloro-benzyloxy)-phenyl]-2-oxo-2,3,5,6,7,8-hexahydro-1H-4-oxa-1,6-diaza-anthracene-7-carbonyl}-amino)-3-(4′-cyano-biphenyl-4-yl)-propionic acid] gave an EC50 [1] of 1000 nM and an Emax [1] of 56%.
For `N#Cc1ccc(-c2ccc(C[C@H](NC(=O)[C@@H]3Cc4cc5c(cc4CN3C(=O)C3CCCCC3)OC(c3ccc(OCc4ccc(Cl)c(Cl)c4)cc3)C(=O)N5)C(=O)O)cc2)cc1` (stereo partly drawn) [Example 25, (S)-3-(4′-Cyano-biphenyl-4-yl)-2-({(S)-6-cyclohexanecarbonyl-3-[4-(3,4-dichloro-benzyloxy)-phenyl]-2-oxo-2,3,5,6,7,8-hexahydro-1H-4-oxa-1,6-diaza-anthracene-7-carbonyl}-amino)-propionic acid], the EC50 [1] was 594 nM and the Emax [1] was 12%.

Reference: patent US7906507B2, “Oxadiazoanthracene compounds for the treatment of diabetes” (TransTech Pharma, Inc., priority 2008, dated 2011)
